From patent publication US9907857B2, “Peptide having cell membrane penetrating activity” (EWHA UNIVERSITY-INDUSTRY COLLABORATION FOUNDATION, priority 2006, dated 2018)

Columns and labels:
Format in all cases: cell-based
HeLa cells [1] = assay: Cell penetrating efficiency of rhodamine-labelled TCTP-derived peptides, microplate fluorescence reader
Procedure: N-terminus of each peptides was labeled with fluorescence dye, rhodamine and C-terminus was protected. Peptide purity (>95%) was determined by HPLC. Synthesis of the peptides was requested to PEPTRON, Inc.
HeLa cell line (ATCC) was propagated in DMEM (GIBCO) supplemented with 10% FBS (GIBCO) and 100 units/mL penicillin-streptomycin. Cells were grown in a 5% CO2 incubator at 37° C.
HeLa cells were cultured in 48-well plate until they were 70˜80% grown up before a day of the experiment. The cells were washed with DMEM of 37° C. twice, and TCTP-derived peptides synthesized in Example 2-1) were treated to the culture medium in a dose dependent manner (0, 1, 5, 10, 50, 100 μM), then the cells was incubated for 15 minutes or 2 hours in an CO2 incubator at 37° C.
After the incubation, the cells were washed in cool PBS three times and immediately measured by a microplate fluorescence reader (BIO-TEK instruments, Inc., Vermont, USA) at emission 530 nm and excitation 590 nm for a measurement of rhodamine of intracellular uptake marker. The sensitivity of reader was set at 100 as a basic mode, but was lowered to 75 if the fluorescent signals were too strong. All experiments were conducted in triplet repeats for reproducibility (FIG. 2 and FIG. 3).

HeLa cells [2] = assay: Cell penetrating activity of FITC-labelled mutant peptides, mean fluorescence intensity by FACS; details: 2 hours, FACS
Procedure: N-terminus of each peptide was labeled with fluorescence dye, FITC and C-terminus was protected. Peptide purity (>95%) was determined by HPLC. Synthesis of the peptides of the present invention was requested to PEPTRON, Inc.
HeLa cell line was propagated in DMEM supplemented with 10% FBS and 100 units/mL penicillin-streptomycin. Cells were grown in a 5% CO2 incubator at 37° C.
HeLa cells were cultured in 6-well plate until they were 70˜80% grown up before a day of the experiment. The cells were washed with DMEM of 37° C. twice, and TCTP-derived peptides synthesized in Example 5-1) were treated to the culture medium in a dose dependent manner (0, 1, 10, 100 μM), then the cells was incubated for 2 hours in an CO2 incubator at 37° C.,
After the incubation, the cells were washed in cool PBS two times and treated with 1 mg/ml trypsin for 15 min at 37° C. to digest peptides attached on cell membrane and washed in PBS twice again. Then, the cells were analyzed by FACS at emission 510 nm and excitation 530 nm for a measurement of FITC of intracellular uptake marker (FIGS. 7, 8 and 9). Intracellular translocation efficiency of mutant peptides, TCTP-CPP#1-35(SEQ ID Nos.: 20-54) was compared to wild type(WT), TCTP(1-10)(SEQ ID No.: 1) and control peptide, TAT(48-57).

HeLa cells [3] = details: treated for 48 hours; concentration not restated, 100 μM implied
Procedure: To confirm whether cell penetrating activity of the peptides of present invention was due to membrane weakness as a result of cytotoxicity, we measured cytotoxicity as follows. HeLa cells were cultured in 96-well plate until they were 70% grown up before a day of the experiment. Control TAT 48-57 and the mutant peptides at concentrations of 0, 1, 10, 100 μM were treated to DMEM supplemented with 10% FBS for 24 and 48 hours. After 2 hours in addition of 10 μl of CCK-8 to each well, absorbance at 450 nm was measured by KC4 plate reader(FIGS. 10, 11 and 12). As a result of toxicity at 100 μM for 24 hours, cytotoxicity of SEQ ID No.: 1, TCTP(1-10) was about 14% compared with control, and cytotoxicities of the other peptides, TCTP-CPP#3, 7 and 8 were insignificant considering standard deviation. When treated for 48 hours, all peptides had no cytotoxicity at 1 and 10 μM while cytotoxicities of TAT, TCTP(1-10), TCTP-CPP#3, 7 and 8 were about 53.8, 28.3, 46.2, 8.2 and 25.6%, respectively. […] Also, all of TCTP-CPP#27-35 had no cytotoxicity at 1 μM and 10 μM but had cytotoxicity at 100 μM.

Sequence: GRKKRRQRRR (Human immunodeficiency virus; (1)..(10) 48-57 amino acid residue of TAT) [TAT(48-57), Control peptide, well-known PTD from HIV-1 TAT, reference compound]
- intracellular translocation, dependence on concentration (HeLa cells [1]; 0-100 μM, 15 minutes or 2 hours): transduced into cell in a dose and time-dependent manner
- concentration at which translocation was saturated (HeLa cells [1]; 2 hour treatment (FIG. 3)): ≥ 1 µM
- mean fluorescence intensity (MFI) relative to WT, MFI of WT at 10 μM set to 1 (HeLa cells [2]; peptide at 10 μM): 6.1 times
- mean fluorescence intensity (MFI) relative to WT (HeLa cells [2]; peptide at 100 μM): 94.75 times
- cytotoxicity (HeLa cells [3]): about 53.8%
